# Experimental data reported in US20230241232A1, “Size-Dependent Brain and Lymphatic Distribution of Macromolecular Drug Delivery Platform” (The United States of America, As Represented by the …, priority 2020, published 2023).
# Molecular target: T1, scavenger receptor A (Mus musculus, UniProt P30204)
# T1 construct: endogenous in cells; host or cells: Raw 264.7 macrophages
# T1 sequence (P30204 1-458): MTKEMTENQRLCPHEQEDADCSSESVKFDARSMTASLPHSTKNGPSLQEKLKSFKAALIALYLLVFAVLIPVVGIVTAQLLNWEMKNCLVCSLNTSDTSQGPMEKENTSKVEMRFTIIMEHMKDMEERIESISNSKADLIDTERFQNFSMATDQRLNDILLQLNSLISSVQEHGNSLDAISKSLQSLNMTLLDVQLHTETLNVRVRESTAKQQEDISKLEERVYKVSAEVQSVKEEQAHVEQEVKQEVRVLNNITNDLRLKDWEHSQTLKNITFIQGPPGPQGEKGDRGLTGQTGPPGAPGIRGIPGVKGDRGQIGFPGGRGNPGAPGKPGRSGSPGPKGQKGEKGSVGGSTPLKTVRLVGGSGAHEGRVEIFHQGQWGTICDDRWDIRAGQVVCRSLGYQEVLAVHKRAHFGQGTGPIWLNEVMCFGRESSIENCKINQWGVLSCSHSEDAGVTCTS
# Experiment: Competitive inhibition of polymer-488 cell uptake by poly I / poly C in Raw 264.7 macrophages
# Assay type: cell-based
# Conditions: for inhibition of polymer-488 fluorescence (% control): Raw 264.7 cells, various inhibitor concentrations, polymer-488 constant, 37° C. 3 hours, FIG. 4; for inhibition of scavenger receptor interaction of polymer-488 (fluorescence): Raw 264.7 macrophages, various concentrations of polymer-488, with or without inhibitor, FIG. 3
# Procedure: The fluorescently labelled poly(L-lysine succinylated) was also tested for cell uptake in a macrophage cell line Raw 264.7 in the presence of competitive inhibitors and relevant controls. […] At higher concentrations of polymer-488, fluorescence is seen due to competing off the poly I.
# In a follow up study, cells were treated with various concentrations of either poly I or poly C while polymer-488 concentration remained constant. In this study, Raw 264.7 cells were incubated overnight at 400,000 cells/mL. The cells were then treated with various concentrations of polymer-488 and either 200 μg/mL poly I, 200 μg/mL poly C, or no inhibitor. The cells were incubated at 37° C. for 3 hours, washed 3 times with media, and fluorescence measured.
Substance,inhibition of polymer-488 fluorescence (% control),inhibition of scavenger receptor interaction of polymer-488 (fluorescence)
polyinosinic acid [poly I],dose-dependent inhibition,inhibition of scavenger receptor interaction
polycytidylic acid [poly C],virtually no inhibition of fluorescence,not with poly C
